According to patent US6495663B1, “Method and composition for enhancing transport across biological membranes” (The Board of Trustees of the Leland Stanford Junior …, priority 1997, dated 2002):
Entries after “also recorded” stand apart in the source; their conditions may differ. No end group written: not given here. *: point of attachment. FITC = O=C1OC2(c3ccc(O)cc3Oc3cc(O)ccc32)c2ccc(NC(=S)*)cc21; Ahx = NCCCCCC(=O)O

Assays:
[1] = tested on: Jurkat cells; assay: Confocal cell microscopy of conjugate uptake; assay type: cell-based, human; settings: 6.25 μM conjugate, 37° C., 10 minutes
Procedure: Cells incubated with fluorescent polyarginine peptides were prepared as described above for binding assays and analyzed at the Cell Sciences Imaging Facility (Stanford University, Stanford, Calif.) using a scanning, single beam laser confocal microscope, with an excitation wavelength of 488 nm (argon-ion laser) and an emission band-width of 510-550 using a band-pass filter. Conjugates (6.25 μM) containing tat(49-57), R7, or r7 coupled to fluorescein were incubated with Jurkat cells for 37° C. for 10 minutes. FIGS. 2A-2F show results for emitted fluorescence (FIGS. 2A-2C) and transmitted light (2D—2F) for tat(49-57) (FIGS. 2A and […]), R7 (FIGS. 2B and 2E), and r7 (FIGS. 2C and 2F).

[2] = tested on: Jurkat cells; assay: Kinetics of uptake (Michaelis-Menten, Lineweaver-Burk); assay type: cell-based, human; settings: for Km / VMAX: fluorescent conjugates, Jurkat cells, 0.5, 1, 2 and 4 minutes at 4° C., Lineweaver-Burk
Procedure: Peptides were incubated with cells for 0.5, 1, 2, and 4 minutes at 4° C. in triplicate, in 50 μL of PBS/FCS in 96-well plates. At the end of incubation, the reaction was quenched by diluting the samples in 5 mL of PBS/FCS, centrifuging and washing once with PBS/FCS, trypsin/EDTA, and finally again with PBS/FCS, and taking up the pellets in PBS/FCS containing propidium iodide for analysis on a FACScan. FACS data were fitted to the Line-weaver-Burk equation for Michaelis-Menten kinetics.

[3] = cited from earlier work
[4] = tested on: Jurkat cells; assay: Fluorescence assay of cellular uptake of peptide-fluorescein conjugates (FACS); assay type: cell-based, human; settings: FIGS. 1A-1C
[5] = tested on: cells; assay: Length range studies: uptake of longer polyarginine conjugates (FACS, mean fluorescence of live cells); assay type: cell-based
Procedure: To examine the effect of substantially longer polymers, a mixture of L-arginine polymers with an average molecular weight of 12,000 daltons (≈100 amino acids) was also tested (Example 5). However, to avoid precipitation problems, the level of serum in the assay had to be reduced for testing conjugates with the ≈12,000 MW polymer material. Cell uptake was analyzed by FACS as above, and the mean fluorescence of live cells was measured. Cytotoxicity of each conjugate was also measured.
Suspension cells ([…]) were incubated for varying times, at 37° C., 23° C., or 4° C., with a range of concentrations of peptides or conjugates in PBS pH 7.2 containing 2% fetal calf serum (PBS/FCS) in 96 well plates. […] The pelleted cells were resuspended in PBS containing 2% FCS and 0.1% propidium iodide and analyzed on a FACScan (Becton Dickenson, Mountain View, Calif.). […]
The following homopolymers of polyarginine were tested by the fluorescence assay in Example 2, with incubation at 37° C. for 15 minutes prior to cell pelleting: r9, R9, R15, R20, R25, and R30. […] The cells were analyzed by FACS, and the mean fluorescence of the live cells was measured. Cytotoxicity of each conjugate was also measured by calculating the percentage of cells that stained with propidium iodide, which is characteristic of cell death. […]

[6] = tested on: E. coli strain HB101; assay: Transport into bacterial cells (gram-negative); assay type: cell-based; settings: 30 minutes at 37° C., 3 to 50 μM conjugate
Procedure: Gram-negative bacteria (E. coli strain HB101) and gram-positive bacteria (Strep. bovis) were grown in appropriate media in logarithmic phase. Cell cultures (4×10^8 per mL) were incubated for 30 minutes at 37° C. with varying concentrations of fluorescent conjugates containing linear polymers of L-arginine (R4 through R9), D-arginine (r4 through r9), or L-lysine (K9) at conjugate concentrations of 3 to 50 μM. The cells were washed and taken up in PBS-containing propidium iodide (to distinguish dead cells) and analyzed by FACS and fluorescent microscopy. Results are shown in FIGS. 5A-5C as discussed above.

[7] = Biological half-life / proteolysis by serum enzymes in uptake assay; assay type: in vitro ADME; settings: serum-containing assay
[8] = tested on: gamma-IFN secretion by murine T cell line (clone 11.3); assay: Inhibition of gamma-IFN production by conjugates; assay type: cell-based
Procedure: 3. Gamma-IFN Assay. The amount of gamma interferon secreted by a murine T cell line (clone 11.3) was measured by incubating 10^5 T cells with varying amounts of antigen (peptide consisting of residues 110-121 of sperm whale myoglobin) and histocompatible spleen cells from DBA/2 mice (H-2d, 5×10^5), which act as antigen-presenting cells (APCs), in 96 well plates. After incubation for 24 hours at 37° C., 100 μL of the supernatants were transferred to microtiter plates coated with commercially available anti-gamma-IFN monoclonal antibodies (Mab) (Pharmingen, San Diego, Calif.). After incubation for an hour at room temperature, the plates were washed with PBS containing 1% fetal calf serum and 0.1% Tween®20, after which a second, biotinylated gamma-IFN Mab was added. After a second hour of incubation, the plates were washed as before, and europium (Eu)-streptavidin (Delphia-Pharmacia) was added. Again, after an hour of incubation, an acidic buffer was added to release Eu, which was measured by time-resolved fluorometry on a Delphia plate reader.
The ability of PNA-polyarginine conjugates to inhibit secretion of gamma-IFN was assayed by adding various concentrations of the above gamma-IFN conjugates with suboptimal doses of peptide antigen (0.5 μM), to a mixture of clone 11.3 T cells and histocompatible spleen cells.
After 24 hours, aliquots of the cultured supernatants were taken, and the amount of gamma-IFN was measured using the fluorescent binding assay described in section 3 above.

[9] = target: T1, RAF-1 in V7 immunocomplex (Homo sapiens, UniProt P04049); assay: Anti-V7 immunoprecipitation from peptide-treated T-cells; assay type: cell-based
T1 construct: T-cells which had been isolated by standard methods; endogenous in cells; host or cells: T-cells isolated by standard methods
Procedure: The conjugate was added (final concentration ≈10 μM) to T-cells which had been isolated by standard methods, and was incubated at 37° C. for several hours to overnight. Cells were lysed using detergent (1% Triton X-100). DNA was removed, and the soluble (protein-containing) fraction was subjected to immunoprecipitation with an anti-V7 murine monoclonal antibody in combination with goat anti-mouse IgG. RAF-1 is a kinase that associates with, and is inactivated by association with, V7.

[10] = target: T2, complex consisting of RAF-1 and p21 Ras (Homo sapiens, UniProt P04049); assay: Disruption of RAF-1/p21 Ras complex in peptide-treated T-cells; assay type: cell-based; settings: same peptide treatment
T2 construct: T-cells which had been isolated by standard methods; endogenous in cells; host or cells: T-cells isolated by standard methods

[11] = target: T3, RAF-1 kinase (Homo sapiens, UniProt P04049); assay: RAF-kinase activity in anti-RAF-1 precipitates of T cells; assay type: cell-based; settings: anti-RAF-1 precipitates of exposed T cells
T3 construct: Anti-RAF-1 precipitates of T cells; endogenous in cells; host or cells: T cells
From the text: In a second study, the V7 peptide portion of the V7-poly-arginine conjugate was phosphorylated in vitro using protein kinase C.

[12] = tested on: cytotoxic T-lymphocytes; assay: Transport of large protein antigen into APCs: stimulation of CTLs; assay type: cell-based; settings: 10 μM on B-cells (APCs)
Procedure: The molar ratio of peptide conjugated to ovalbumin was quantified by amino acid analysis. The conjugate product was designated OV-R7. The conjugate was added (final concentration 10 μM) to B-cells, also referred to as antigen-presenting cells (APCs), which were isolated according to standard methods. The APCs were incubated with OV-R7, and then were added to a preparation of cytotoxic T-lymphocytes isolated by standard methods.

[13] = tested on: albumin-specific CTLs; assay: Dendritic cells exposed to conjugate and injected into mice: CTL response in blood; assay type: in vivo; settings: dendritic cells exposed to antigen, then injected into mice
Procedure: In another experiment, histocompatible dendritic cells (a specific type of APC) were exposed to albumin-R7 conjugates and were then injected into mice. […] Control mice were given dendritic cells that had been exposed to unmodified albumin.

Arg-Lys-Lys-Arg-Arg-Gln-Arg-Arg-Arg (RKKRRQRRR; also: fluorescein conjugate, place not given here) [tat 49-57, polypeptide comprising HIV tat residues 49-57, fluorescein conjugate, reference compound]
fluorescence of cytosol (confocal micrographs) [1]: only weak staining
Km [2]: 722 µM
VMAX [2]: 0.38 µM/s

CC(=O)O[C@@]12CO[C@@H]1C[C@H](O)[C@@]1(C)C(=O)[C@H](O)C3=C(C)[C@@H](OC(=O)[C@H](O)[C@@H](NC(=O)OC(C)(C)C)c4ccccc4)C[C@@](O)([C@@H](OC(=O)c4ccccc4)[C@H]21)C3(C)C [taxotere]
water solubility [3]: 6 to 7 µg/mL

K9: nonamer of L-Lys residues, fluorescein conjugate ({FITC-Ahx}-KKKKKKKKK; also: fluorescein conjugate, place not given here)
cellular uptake (transport of fluorescein into cells) [4]: very little uptake
cellular uptake (transport of fluorescein into cells) ([4]; listed as poly-Lys nonamer): ineffective as a transporter

H3N-rrrrrrrrr-COO^-
fluorescence of cytosol (confocal micrographs) [1]: brightly fluorescent
rate of entering cells ([5]; FIG. 3 data): higher rates than polymers containing 15 or more contiguous arginines
uptake versus longer polymers ([5]; higher concentrations (>3 μM), 37° C., 15 minutes): significantly better than for the longer polymers
Km [2]: 7.21 µM
VMAX [2]: 0.39 µM/s
Km ([2]; listed as nonamer of D-arginine): 7 µM
apparent affinity (Km) relative to tat peptide ([2]; greater apparent affinity than tat(49-57)): approximately 100 fold
uptake levels by E. coli HB 101 cells [6]: much higher uptake levels
proteolytic degradation [7]: did not show evidence of proteolytic degradation

NH2-rrrrrrr-AACGCTACAC-COOH (PNA, D-arginine heptamer conjugate, chemistry not fully specified) [sense PNA-r7]
inhibition of gamma-IFN secretion ([8]; 24 hours, peptide antigen 0.5 μM, equivalent molar amounts): no inhibition

V7 peptide: V7 cytoplasmic tail sequence KLSTLRSNT with 7 arginine residues attached to its C-terminus (KLSTLRSNTRRRRRRR)
binding to RAF-1 [9]: can bind to RAF-1
RAF-1 co-precipitation with V7 ([9]; ≈10 μM on T-cells, 37° C., several hours to overnight): RAF-1 protein was eliminated from the V7 immuno-complex; also recorded: RAF-1 protein was eliminated from the V7 immunocomplex
disruption of complex of RAF-1 and p21 Ras [10]: did not disrupt; also recorded: unable to disrupt
inhibition of RAF-kinase activity [11]: not

NH2-rrrrrrr-GTGTAGCGTT-COOH (all peptide nucleic acid (PNA); D-arginine heptamer attached at the N-terminus, further chemistry not fully specified) [antisense PNA-r7 conjugate]
reduction in IFN secretion ([8]; 24 hours, peptide antigen 0.5 μM): over 70%
conjugate level effective to block γ-IFN secretion ([8]; FIG. 7): above 10 μM

B1: unmodified ovalbumin: ovalbumin (45 kDa) protein antigen, not conjugated (protein, UniProt P01012 2-386, looked up)
Ovalbumin: GSIGAASMEFCFDVFKELKVHHANENIFYCPIAIMSALAMVYLGAKDSTRTQINKVVRFDKLPGFGDSIEAQCGTSVNVHSSLRDILNQITKPNDVYSFSLASRLYAEERYPILPEYLQCVKELYRGGLEPINFQTAADQARELINSWVESQTNGIIRNVLQPSSVDSQTAMVLVNAIVFKGLWEKAFKDEDTQAMPFRVTEQESKPVQMMYQIGLFRVASMASEKMKILELPFASGTMSMLVLLPDEVSGLEQLESIINFEKLTEWTSSNVMEERKIKVYLPRMKMEEKYNLTSVLMAMGITDVFSSSANLSGISSAESLKISQAVHAAHAEINEAGREVVGSAEAGVDAASVSEEFRADHPFLFCIKHIATNAVLFFGRCVSP
stimulation of CTLs by APCs incubated with antigen [12]: failed to stimulate the CTLs
albumin-specific CTL response in blood of mice [13]: did not exhibit the albumin-specific CTL response
